The values that follow come from patent US20240124428A1, “HETEROCYCLIC INHIBITORS OF PCSK9” (CARDIO THERAPEUTICS PTY LTD, priority 2020, published 2024).

Data set [1] is described as follows: Dedicated pharmacokinetic study, single oral dose. To be noted: plasma; for Cmax / Tmax / AUC(0-t): female, C57BL/6, mouse, mice; for Cmax / Tmax: PO 50 mg/kg study; for AUC(0-t): route and dose not given (PO 50 mg/kg study); for bioavailability: mouse, PO dose of 50 mg/kg, female C57BL/6 mice. The class given is in vivo, C57BL/6 mice. The protocol:
For dedicated pharmacokinetic analyses of compounds 29, 122 and 131, C57BL/6 mice (19-21 g, 10-12 weeks, female, purchased from Jihui Laboratory Animal Co. LTD) were given free access to food and water throughout the in-life phase of the study. Mice were orally dosed once with 50 mg/kg (10 mL/kg) of either compound 29, 122 and 131 with each compound formulated in 90% saline, 5% Solutol HS15 and 5% DMSO. At designated time points following dosing (t=0.083, 0.25, 0.5, 1, 2, 4, 8 and 24 h), the animals were restrained manually and ˜110 μL of blood/time point was collected into pre-cooled EDTA-K2 tubes via the facial vein. Blood samples were put on wet ice, then centrifuged at 2000 g for 5 min (4° C.) to obtain plasma within 15 min after sample collection. Plasma samples were subsequently stored at approximately −70° C. until analysis. Each sample was assayed for levels of 29, 122 and 131 by LC/MS/MS using a Triple Quadruple (6500+) system operating in a positive electrospray ionisation mode.
The mean plasma concentration-time profiles from dedicated pharmacokinetic analyses of compound 29, 122 and 131 are shown in FIG. 5A-C. Mice were orally dosed once with either 50 mg/kg of (A) compound 29, (B) compound 122 or (C) compound 131.

Another data set deals with T1, CYP2D6 (Homo sapiens, UniProt P10635).
T1 construct: using human liver microsomes; from tissue; host or cells: human liver microsomes
The data set can be described thus: CYP inhibition assay, CYP2D6. The format is in vitro ADME. The conditions noted are these: probe Bufaralol (10 μM), human liver microsomes. The protocol:
In vitro CYP (cytochrome P450) enzyme inhibition studies predict a drug candidate's predisposition to inhibit cytochrome P450 enzymes. The cytochrome P450 (CYP) inhibition assay was run against CYP2D6 and CYP3A4 isoforms using human liver microsomes. For CYP2D6, the probe substrates was Bufaralol (10 μM) and the positive control was Quinidine (2.5 μM). Midazolam (5 μM) was chosen as the probe substrate for CYP3A4 and Ketocanazole (2.5 μM) was used as the positive control inhibitor. To increase the throughput of the assay, one concentration (10 μM) was tested. For analysis via LC-MS, internal standards of 1-OH-Bufuralol-maleate-[D9] for CYP2D6 and 1′-OH-Midazolam-13C3 for CYP3A4 were used.
In general terms: Microsomes from liver hold many membrane-bound enzymes, among them those of drug oxidation.

The target in data set [2] is T2, binding between PCSK9 and the LDL receptor (Homo sapiens, UniProt Q8NBP7).
T2 construct: purchased CircuLex
Nature of the data set: In vitro PCSK9-LDLR binding assay (CircuLex kit). The protocol:
Compounds were assayed for their ability to inhibit the binding between PCSK9 and the LDL receptor using a CircuLex PCSK9-LDLR in vitro binding assay kit. The procedure employed the reagents and buffers included in the kit as follows. 88 μL of 1× reaction buffer was placed into each well. 5 μL of test compound in 20% DMSO was added into each well. 10 mM solutions of test compounds in DMSO were diluted by 3-fold series to give 6-point concentration curves. The compounds were then diluted 20-fold with the reaction buffer. To each well was then added 7 μL of His-tagged PCSK9 wild type solution (1000 ng/mL). The plate was then covered with a plate sealer and incubated at room temperature for 3 hours, shaking at 300 rpm on an orbital microplate shaker. The test solutions were washed 4 times with 350 μL wash buffer. One 100 μL of biotinylated anti-His-tag monoclonal antibody was added to each well. The plate was covered with a plate sealer, and incubated at room temperature for 1 h, shaking at 300 rpm. The test solutions were washed 4 times with 350 μL wash buffer. […] of HRP-conjugated streptavidin was added to each well. The plate was covered with a plate sealer, and incubated at room temperature for 20 min, shaking at 300 rpm. The test solutions were washed 4 times with 350 μL wash buffer. 100 μL of substrate reagent was added into each well. The plate was covered with a plate sealer, and incubated at room temperature for 15 min, shaking at 300 rpm. Finally, 100 μL of stop solution was added to each well in the same order as the previously added substrate reagent.
The results of the binding assay are shown in FIG. 3, reported as IC50 (μM).

The subject of the next data set is APOE*3-Leiden.CETP mice. Nature of the data set: In vivo efficacy study: compound 29 monotherapy. The conditions noted are these: for reduction of total plasma cholesterol levels compared to the vehicle control: over a period of four weeks. The protocol: Female APOE*3-Leiden.CETP mice (˜10-14 weeks old) were obtained from the SPF breeding stock at TNO-Metabolic Health Research (Leiden).
Mice were housed in macrolon cages (maximum of 6 mice per cage) in clean-conventional animal rooms (relative humidity 50-60%, temperature ˜21° C., light cycle 7 am to […]). Mice were fed a semi-synthetic western type diet with 15% saturated fat and 0.15% (w/w) cholesterol and were provided with heat-sterilized tap water and food ad libitum.
Forty female APOE*3-Leiden.CETP mice were allowed to acclimate to these conditions for a 3 week run-in period prior to the removal of 8 low-responder mice. […] In the final week of the run-in diet, all mice received vehicle solution (5% DMSO, 5% Solutol HS15, 90% saline) twice daily by oral gavage to accustom the animals to the procedure. After matching, mice received vehicle solution only (Group 1) or compound 29 in vehicle solution (Groups 2, 3 and 4) for the remainder of the study by twice daily administration using oral gavage in a volume of 5 mL/kg body weight. On days 0, 3, 7, 14, 21 and 28 of treatment, blood samples were taken after 4 h of fasting, from which EDTA plasma was collected and used for measurement of plasma total cholesterol. Lipoprotein profiles were determined on day 0, 14 and 28 in group pooled plasma samples using an equal volume of plasma per mouse. On day 28, directly after the last blood sampling point, mice were sacrificed via CO2 asphyxiation, fasted. At sacrifice, EDTA-plasma samples were obtained via heart puncture.
EDTA plasma blood samples were obtained after 4 h fasting. Animals were placed under a red light lamp for at least 10 minutes. The tail was fixed and the mice were allowed to move freely during blood collection and were not fixed to avoid additional stress. […]
Total plasma cholesterol and triglyceride levels were determined using a […] from Roche.
Analyses were performed in samples pooled per group. Cholesterol levels were measured using a “Cholesterol CHOD-PAP” kit from Roche.

Bounds are passed on as bounds.

T1 sequence (P10635 whole entry): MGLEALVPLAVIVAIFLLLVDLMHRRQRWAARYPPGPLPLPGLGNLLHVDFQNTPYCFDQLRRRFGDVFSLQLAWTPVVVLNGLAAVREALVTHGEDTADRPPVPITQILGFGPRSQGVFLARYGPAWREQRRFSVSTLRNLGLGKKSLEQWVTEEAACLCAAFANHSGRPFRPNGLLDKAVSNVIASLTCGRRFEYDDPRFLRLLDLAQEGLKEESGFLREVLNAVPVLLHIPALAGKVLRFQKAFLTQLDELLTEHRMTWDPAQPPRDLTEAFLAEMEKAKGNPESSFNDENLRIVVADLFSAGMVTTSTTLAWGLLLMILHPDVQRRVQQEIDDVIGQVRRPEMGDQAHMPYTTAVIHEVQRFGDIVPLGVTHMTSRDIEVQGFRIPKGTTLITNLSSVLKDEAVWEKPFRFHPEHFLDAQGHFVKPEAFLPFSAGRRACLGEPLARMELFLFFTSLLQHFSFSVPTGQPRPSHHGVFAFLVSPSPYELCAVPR
T2 sequence (Q8NBP7 153-692): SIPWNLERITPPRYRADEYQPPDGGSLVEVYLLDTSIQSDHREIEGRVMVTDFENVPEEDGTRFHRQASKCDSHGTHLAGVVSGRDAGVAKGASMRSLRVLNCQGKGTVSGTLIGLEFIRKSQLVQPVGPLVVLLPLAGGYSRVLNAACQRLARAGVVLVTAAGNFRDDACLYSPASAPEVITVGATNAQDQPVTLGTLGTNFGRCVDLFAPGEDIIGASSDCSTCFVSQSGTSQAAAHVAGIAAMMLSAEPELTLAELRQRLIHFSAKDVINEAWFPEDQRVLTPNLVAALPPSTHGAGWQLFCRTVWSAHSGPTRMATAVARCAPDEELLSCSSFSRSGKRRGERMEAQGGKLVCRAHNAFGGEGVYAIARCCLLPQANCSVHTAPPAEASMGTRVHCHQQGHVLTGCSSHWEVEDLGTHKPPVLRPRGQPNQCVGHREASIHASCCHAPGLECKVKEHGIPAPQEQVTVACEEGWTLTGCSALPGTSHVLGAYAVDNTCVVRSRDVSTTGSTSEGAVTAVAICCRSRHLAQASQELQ
T2 sequence (Q8NBP7 31-152 partner limits assumed): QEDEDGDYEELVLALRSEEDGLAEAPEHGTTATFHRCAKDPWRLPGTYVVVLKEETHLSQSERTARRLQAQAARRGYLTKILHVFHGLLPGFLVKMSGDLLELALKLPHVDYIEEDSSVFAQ

With `Cc1ccc(-c2cc(CN3CCC(F)(F)[C@H](N)C3)cc(NC(=O)c3cc(-c4ccccc4)ccn3)c2)cn1` [Compound 122], in data set [1], the highest level (Cmax) was 10800 ng/mL, the Tmax came to 4 h, the exposure AUC(0-t) was determined as 173000 ng·h/mL and the bioavailability stood at 75%. The compound further showed an inhibition at 10 µM on CYP2D6 of 25.6%. The compound further came in with an IC50 in data set [2] of 279 nM.

Turning to `Cc1cn(-c2cc(CN3CCC[C@H](N)C3)cc(NC(=O)c3cc(-c4ccccc4)ccn3)c2)cn1` [compound 29, (S)—N-(3-((3-aminopiperidin-1-yl)methyl)-5-(4-methyl-1H-imidazol-1-yl)phenyl)-4-phenylpicolinamide], in the data set with APOE*3-Leiden.CETP mice (30 and 50 mg/kg bid oral, over four weeks), the “plasma PCSK9 levels” value is listed as “increase in plasma PCSK9 levels”. The “reduction of total plasma cholesterol levels compared to the vehicle control” value with APOE*3-Leiden.CETP mice (oral dosing 30 mg/kg) is given as “more than 30%”. For the same compound, the “reduction of total plasma cholesterol levels compared to the vehicle control” value in the data set on APOE*3-Leiden.CETP mice (oral dosing 50 mg/kg) was > 50%. Also, in data set [1], the Cmax came to 1480 ng/mL, the Tmax came out at 2 h, the AUC(0-t) is 8130 ng·h/mL and the bioavailability is 40%. At 10 µM the inhibition on CYP2D6 was 69.8%. In addition, the IC50 in data set [2] is 320 nM.

`Cc1cnc(C(=O)Nc2cc(CN3CCC(F)(F)[C@H](N)C3)cc(-c3ccc(C(F)(F)F)nc3)c2)cc1-c1ccccc1` [compound 131]: in data set [1], the highest level (Cmax) was 6740 ng/mL, the Tmax came out at 1 h, the AUC(0-t) stood at 98500 ng·h/mL and the bioavailability is 54%. Also, the inhibition at 10 µM against CYP2D6 worked out at 11.4%. This compound had a half-maximal inhibitory concentration (IC50) in data set [2] of 547 nM.

Broadly, the Cmax is the highest concentration seen after dosing. One may read the Tmax as the time from dosing to the highest level. One may read the AUC(0-t) as the area under the concentration-time curve up to a stated or last time point. A low value points to less exposure. In general, bioavailability refers to dose-corrected exposure relative to a reference, in per cent. Broadly, the inhibition is the relative decrease from the control value, in per cent. For orientation: IC50 means the concentration that inhibits the measured activity by half. Read a high IC50 as a need for much substance.
